Laboratory results published in PMC4127532 (Journal of Medicinal Chemistry, 2014).

Test system: A/England/195/2009 (H1N1), M2/N31
Assay type: cell-based
Conditions: 100 μM

NC1C2CC3CC(C2)CC1C3 (stereo not shown) [Compound 3]
% block after 30 min: 16 (100 μM; 1) %
